In patent publication US11753363B2, “13-oxidized ingenol derivative and use thereof” (Tianjin Pharmaceutical Da Ren Tang Group Corp., Ltd. …, priority 2017, dated 2023):
≈ marks a conversion by molar mass, not a printed value.

Assays:
[1] = tested on: SMMC-7721 (human liver cancer cells); test: Inhibition of proliferation of tumor cell lines (MTT), SMMC-7721; type: cell-based; conditions: Homo sapiens, SMMC-7721, 72 h, read-out: IC50 value of compound for inhibition of proliferation of tumor cell lines, SMMC-7721
Method in brief: (§1)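 Log-phase cells, RPMI 1640 + 10% calf serum, seeded ~1×10^5/mL, 24 h attachment. Compound dilutions, quadruplicate wells, 72 h, 37° C/5% CO2. MTT 4 h → DMSO → A570. IC50 via log-dose/IR regression.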

[2] = tested on: HeLa (human cervical cancer cells); test: Inhibition of proliferation of tumor cell lines (MTT), HeLa; type: cell-based; conditions: Homo sapiens, 72 h, read-out: IC50 value of compound for inhibition of proliferation of tumor cell lines, HeLA
Method in brief: as §1

[3] = tested on: neutrophilic granulocytes; test: Neutrophil oxidative burst (luminol chemiluminescence); type: cell-based; conditions: Neutrophil; 0.1 μg/mL; rat neutrophils; (Csample−Ccontrol)/Ccontrol×100%; read-out: Efficiency of compounds in stimulating neutrophil oxidative burst
Method in brief: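 Rat neutrophils isolated from abdominal aorta blood, resuspended in Hanks at 1×10^5 cells/well with 1 mM luminol stock added. Oxidative burst read by chemiluminescence after sample addition; efficiency (%) = (Csample−Ccontrol)/Ccontrol×100%.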

[4] = tested on: A549 (human lung cancer cells); test: Inhibition of proliferation of tumor cell lines (MTT), A549; type: cell-based; conditions: Homo sapiens, A549, 72 h, read-out: IC50 value of compound for inhibition of proliferation of tumor cell lines, A549
Method in brief: as §1

[5] = tested on: release of IL-8 by human keratinocytes (HaCaT); test: Release of IL-8 by human keratinocytes (HaCaT), IL-8 Elisa; type: cell-based; conditions: Homo sapiens, HaCaT; 0.1 μg/mL; 24 h; (Csample−Ccontrol)/Ccontrol×100%; read-out: Efficiency of compound in stimulating the release of IL-8 by HaCaT cells
Method in brief: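 HaCaT keratinocytes in MEM + 10% FBS, seeded 1×10^4 cells/well for 18-24 h, then switched to 1% FBS medium for 3-6 h. Exposed to a range of compound concentrations for 24 h at 37 °C, 5% CO2. Supernatant IL-8 measured by ELISA; efficiency (%) = (Csample − Ccontrol)/Ccontrol × 100%.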

[6] = tested on: K562 (human leukemia cells); test: Inhibition of proliferation of tumor cell lines (MTT), K562; type: cell-based; conditions: Homo sapiens, K562, 72 h, read-out: IC50 value of compound for inhibition of proliferation of tumor cell lines, K562
Method in brief: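 Cells in RPMI 1640 with 10% calf serum; adherent lines seeded at about 1×10^5/mL and attached 24 h, K562 at 2×10^5/mL. Compounds added in quadruplicate, 72 h at 37 °C, 5% CO2; MTT 4 h, DMSO-dissolved formazan read at 570 nm. IC50 from log-concentration versus inhibition-rate regression.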

[7] = tested on: MCF-7 (human breast cancer cells); test: Inhibition of proliferation of tumor cell lines (MTT), MCF-7; type: cell-based; conditions: Homo sapiens, MCF7, MCF-7, 72 h, read-out: IC50 value of compound for inhibition of proliferation of tumor cell lines, MCF-7
Method in brief: as §1

[8] = tested on: mouse B16-F10 melanoma cells; test: Inhibition of proliferation of tumor cell lines (MTT), B16-F10; type: cell-based; conditions: Mus musculus, B16-F10, 72 h, read-out: IC50 value of compound for inhibition of proliferation of tumor cell lines, B16-F10
Method in brief: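 Mouse B16-F10 melanoma cells, 1×10^5/mL in RPMI 1640 with 10% calf serum, attached 24 h, then exposed to graded compound concentrations in quadruplicate for 72 h at 37 °C, 5% CO2. MTT added for 4 h, read at 570 nm; IC50 by regression of inhibition rate on log concentration.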

B16-F0 mouse melanoma = test: Antitumor activity in B16-F0 mouse melanoma model; type: in vivo; conditions: female C57BL/6J mice, intradermal B16 tumor, skin administration once per day for 3 days, 20 μL/mouse, tumor weight on day 19
Experimental: This Example investigated the antitumor activity of compounds in B16-F0 mouse melanoma model.
In vitro passage of B16-F0 tumor source was inoculated subcutaneously into female C57BL/6J mice, and passage was carried out after tumor formation. After passage, the subcutaneous tumor tissue of the tumor-bearing mice was taken and ground with 3 times amount of physiological saline to form a tumor cell suspension, and 0.2 mL/mouse of which was inoculated subcutaneously into the axilla of forelimb of mice, which were used as the tumor-source mice. Female C57BL/6J mice were taken and their hair in an area of 4 cm^2 on the neck and back was shaven. After anesthesia with diethyl ether, B16 tumor source was inoculated intradermally at 0.05 mL/mouse. After 3 days of inoculation, the skin was continuously administered for 3 days, once per day, 20 μL/mouse each time, and in the test, a solvent group as a negative control group was included. On the 19th day of the experiment, the experiment was terminated. After the mice were euthanized, the intradermally transplanted tumors were completely separated and excised, and the tumor was weighed to calculate the tumor inhibition rate. Calculation formula of tumor inhibition rate: tumor inhibition rate (%)=(Wmodel group−Wadministration group)/Wmodel group×100%
The tumor growths of the experimental group and the solvent control group were compared to evaluate the antitumor activity of each compound, and the compound with P<0.05 was considered to be effective.

[9] = tested on: LOVO (human colon cancer cells); test: Inhibition of proliferation of tumor cell lines (MTT), LOVO; type: cell-based; conditions: Homo sapiens, 72 h, read-out: IC50 value of compound for inhibition of proliferation of tumor cell lines, LOVO
Method in brief: as §1

[10] = tested on: BGC-823 (human gastric cancer cells); test: Inhibition of proliferation of tumor cell lines (MTT), BGC-823; type: cell-based; conditions: Homo sapiens, BGC-823, 72 h, read-out: IC50 value of compound for inhibition of proliferation of tumor cell lines, BGC-823
Method in brief: as §1

CCCCCCCCCCCC(=O)O[C@@]12C[C@@H](C)[C@]34C=C(C)[C@H](OC(=O)c5c(CC)noc5CC)[C@@]3(O)[C@H](O)C(CO)=C[C@H](C4=O)[C@@H]1C2(C)C [Compound 22, 3-O-(3,5-diethylisoxazolyl-4-formyl)-13-O-dodecanoyl-ingenol]
IC50 [1]: 20.1 µg/mL (≈ 28.8 µM)
IC50 [2]: 9.59 µg/mL (≈ 13.7 µM)
activation at 0.1 µg/mL [3]: 124%
IC50 [4]: 18.3 µg/mL (≈ 26.2 µM)
activation at 0.1 µg/mL [5]: 144%
IC50 [6]: 1.14 µg/mL (≈ 1.63 µM)
IC50 [7]: 10.9 µg/mL (≈ 15.6 µM)
IC50 [8]: 2.96 µg/mL (≈ 4.24 µM)
Tumor-inhibition rate (B16-F0 mouse melanoma): 39.5%
IC50 [9]: 11 µg/mL (≈ 15.8 µM)
IC50 [10]: 11.3 µg/mL (≈ 16.2 µM)
